According to patent US8846694B2, “Pyrrolidone derivatives for use as MetAP-2 inhibitors” (Merck Patent GmbH, priority 2008, dated 2014):
Where a name gives a salt, the structure may show the parent alone.

Target: MetAP-2 (Homo sapiens, UniProt P50579)
Assay: MetAP-2 activity measurement (coupled enzymatic reactions, substrate Met-Arg-Ser, photometric at 450 nm)
Format: biochemical
Settings: read-out: IC50 enzyme (Inhibition of MetAP-2)
Method: MetAP-2 Activity Measurement
The MetAP-2 activity is determined by coupling enzymatic reactions. The tripeptide Met-Arg-Ser (MAS) is employed as substrate. The methionine liberated is firstly converted into Metox and H2O2 by L-aminooxidase (AAO). In the second step, the peroxidase (POD) with the aid of the H2O2 catalyses the oxidation of the leukodye dianisidine to dianisidineox, the increase of which is detected photometrically at 450 nm.
MetAP-2 activity can be recorded continuously as kinetics. The reaction scheme illustrates that one mol of dianisidineox is formed per mol of methionene. The MetAP-2 enzyme activity can therefore be calculated directly as Δ absorption per time unit. […] of the MetAP-2 activity (mol of Met/time unit) is possible with the aid of the dianisidineox extinction coefficient.
The change in extinction per time unit is depicted graphically and a slope calculation is carried out in the visually linear region of the reaction.

MetAP-2, sequence (P50579 whole entry, species assumed): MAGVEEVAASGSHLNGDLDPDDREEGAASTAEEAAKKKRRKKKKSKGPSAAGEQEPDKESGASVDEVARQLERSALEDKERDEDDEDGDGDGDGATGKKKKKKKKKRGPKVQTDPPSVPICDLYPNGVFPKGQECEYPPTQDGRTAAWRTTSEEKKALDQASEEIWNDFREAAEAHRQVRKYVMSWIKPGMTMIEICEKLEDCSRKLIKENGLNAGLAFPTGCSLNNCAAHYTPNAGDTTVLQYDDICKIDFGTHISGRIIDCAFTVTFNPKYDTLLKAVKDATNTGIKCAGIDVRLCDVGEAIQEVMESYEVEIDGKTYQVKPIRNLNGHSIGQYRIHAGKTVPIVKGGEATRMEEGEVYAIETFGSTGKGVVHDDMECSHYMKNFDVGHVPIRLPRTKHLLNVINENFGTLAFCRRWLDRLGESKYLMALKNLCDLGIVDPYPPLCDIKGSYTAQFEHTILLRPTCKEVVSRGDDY

Row | Compound | IC50 [µM]
1 | 2-[1-(1H-imidazol-4-yl)meth-(Z)-ylidene]-5-[(R)-1-(9H-purin-6-yl)pyrrolidin-2-ylmethoxy]-3,4-dihydro-2H-naphthalen-1-one [A15] | 0.01 to 1
2 | Clc1ccccc1CCC1CCCN1c1ncnc2[nH]cnc12 (racemic) [A5, 6-{2-[2-(2-chlorophenyl)ethyl]pyrrolidin-1-yl}-9H-purine] | 1 to 10
3 | FC1(F)C[C@H](COc2cccc3ccccc23)N(c2ncnc3[nH]cnc23)C1 [A8, 6-[(R)-4,4-difluoro-2-(naphthalen-1-yloxymethyl)pyrrolidin-1-yl]-9H-purine] | 1 to 10
4 | Brc1nc2c(N3CCC[C@@H]3COc3cccc4ccccc34)ncnc2[nH]1 [A18, 8-Bromo-6-[(R)-2-(naphthalen-1-yloxymethyl)-pyrrolidin-1-yl]-9H-purine] | > 10
5 | Nn1cnc2c(N3CCC[C@@H]3COc3cccc4ccccc34)ncnc21 [A25, 6-[(R)-2-(Naphthalen-1-yloxymethyl)pyrrolidin-1-yl]purin-9-ylamine] | 1 to 10
6 | F[C@@H]1C[C@H](COc2ccccc2Cl)N(c2ncnc3[nH]cnc23)C1 [A27, 6-[(2R,4R)-2-(2-Chlorophenoxymethyl)-4-fluoro-pyrrolidin-1-yl]-9H-purine] | > 10
7 | F[C@H]1C[C@H](COc2cccc3ccccc23)N(c2ncnc3[nH]cnc23)C1 [A28, 6-[(2R,4S)-4-Fluoro-2-(naphthalen-1-yl-oxymethyl)pyrrolidin-1-yl]-9H-purine] | 1 to 10
8 | O[C@@H]1C[C@H](COc2cccc3ccccc23)N(c2ncnc3[nH]cnc23)C1 [A30, (3R,5R)-5-(Naphthalen-1-yloxymethyl)-1-(9H-purin-6-yl)pyrrolidin-3-ol] | > 10
9 | O=c1ccc(-c2cc(F)cc(F)c2)nn1CC1CCCN1c1ncnc2[nH]cnc12 (stereo not drawn) [A32, 6-(3,5-Difluorophenyl)-2-[1-(9H-purin-6-yl)-pyrrolidin-2-ylmethyl]-2H-pyridazin-3-one] | > 10
10 | CC(=O)Nc1nc2ccc(CNC(=O)Nc3cc(C(F)(F)F)ccc3OCC3CCCN3c3ncnc4[nH]cnc34)cc2[nH]1 (stereo not drawn) [A33, N-[6-(3-{2-[1-(9H-Purin-6-yl)pyrrolidin-2-yl-methoxy]-5-trifluoromethylphenyl}ureido-methyl)-1H-benzimidazol-2-yl]acetamide] | > 10
11 | CNC(=O)c1cc(Oc2ccc(CNC(=O)Nc3cc(C(F)(F)F)ccc3OCC3CCCN3c3ncnc4[nH]cnc34)cc2)ccn1 (stereo not drawn) [A34, N-Methyl-4-[4-(3-{2-[1-(9H-purin-6-yl)pyrrolidin-2-ylmethoxy]-5-trifluoromethyl-phenyl}ureidomethyl)phenoxy]pyridine-2-carboxamide] | > 10
12 | c1ccc2c(c1)oc1cc(OC[C@H]3CCCN3c3ncnc4[nH]cnc34)ccc12 [A37] | 1 to 10
13 | CCCCn1c(C)c(C(=O)OCC)c2cc(OC[C@H]3CCCN3c3ncnc4[nH]cnc34)ccc21 [A39, Ethyl 1-butyl-2-methyl-5-[(R)-1-(9H-purin-6-yl)-pyrrolidin-2-ylmethoxy]-1H-indole-3-carboxylate] | 1 to 10
14 | c1cc(OC[C@H]2CCCN2c2ncnc3[nH]cnc23)c2cc[nH]c2c1 [A40, 6-[(R)-2-(1H-lndol-4-yloxymethyl)pyrrolidin-1-yl]-9H-purine] | 1 to 10
15 | COc1cc2c(OC[C@H]3CCCN3c3ncnc4[nH]cnc34)ncnc2cc1OCc1ccccc1 [A45, 7-Benzyloxy-6-methoxy-4-[(R)-1-(9H-purin-6-yl)-pyrrolidin-2-ylmethoxy]quinazoline] | > 10
16 | CNC(=O)c1cc(OC[C@H]2CCCN2c2ncnc3[nH]cnc23)c2ccccc2n1 [A48, N-Methyl-4-[(R)-1-(9H-purin-6-yl)pyrrolidin-2-yl-methoxy]quinoline-2-carboxamide formate] | 0.01 to 1

More lines, now with the values ahead:

Row | IC50 [µM] | Compound
17 | 0.01 to 1 | c1ccc2c(OC[C@H]3CCCN3c3ncnc4[nH]cnc34)ccc(CN3CCOCC3)c2c1 [A3, 6-[(R)-2-(4-morpholin-4-ylmethylnaphthalen-1-yloxymethyl)pyrrolidin-1-yl]-9H-purine]
18 | 1 to 10 | Clc1cccc(/C=C/[C@H]2CCCN2c2ncnc3[nH]cnc23)c1 [A11, 6-{(R)-2-[(E)-2-(3-chlorophenyl)vinyl]pyrrolidin-1-yl}-9H-purine]
19 | 1 to 10 | C(=C\[C@H]1CCCN1c1ncnc2[nH]cnc12)/c1cccc2ccccc12 [A12, 6-[(R)-2((E)-2-naphthalen-1-ylvinyl)pyrrolidin-1-yl]-9H-purine]
20 | 1 to 10 | O=C(NC1CC1)c1cc(OC[C@H]2CCCN2c2ncnc3[nH]cnc23)c2ccccc2n1 [A14, N-cyclopropyl-4-[(R)-1-(9H-purin-6-yl)pyrrolidin-2-ylmethoxy]quinoline-2-carboxamide hydrochloride]
21 | > 10 | Cc1nc2c(N3CCC[C@@H]3COc3ccccc3Cl)ncnc2[nH]1 [A16, 6-[(R)-2-(2-Chlorophenoxymethyl)pyrrolidin-1-yl]-8-methyl-9H-purine]
22 | > 10 | CCc1nc2c(N3CCC[C@@H]3COc3ccccc3Cl)ncnc2[nH]1 [A17, 6-[(R)-2-(2-Chlorophenoxymethyl)pyrrolidin-1-yl]-8-ethyl-9H-purine HCl]
23 | > 10 | CN(C[C@H]1CCCN1c1ncnc2[nH]cnc12)c1cccc(F)c1 [A21]
24 | > 10 | Clc1ccccc1OC[C@H]1CCCN1c1ncnc2ncccc12 [A22]
25 | > 10 | c1ccc2c(OC[C@H]3CCCN3c3ncnc4ncccc34)cccc2c1 [A23, 4-[(R)-2-(Naphthalen-1-yloxymethyl)pyrrolidin-1-yl]pyrido[2,3-d]pyrimidine]
26 | > 10 | Nn1ccc2c(N3CCC[C@@H]3COc3ccccc3F)ncnc21 [A24, 4-[(R)-2-(2-Fluorophenoxymethyl)pyrrolidin-1-yl]pyrrolo[2,3-d]pyrimidin-7-ylamine]
27 | > 10 | F[C@@H]1C[C@H](COc2cccc3ccccc23)N(c2ncnc3[nH]cnc23)C1 [A26, 6-[(2R,4R)-4-Fluoro-2-(naphthalen-1-yl-oxymethyl)pyrrolidin-1-yl]-9H-purine]
28 | 0.01 to 1 | c1ccc2c(c1)[nH]c1cccc(OC[C@H]3CCCN3c3ncnc4[nH]cnc34)c12 [A38, 4-[(R)-1-(9H-Purin-6-yl)pyrrolidin-2-ylmethoxy]-9H-carbazole]
29 | 0.01 to 1 | CC(=O)c1cc2cccc(OC[C@H]3CCCN3c3ncnc4[nH]cnc34)c2o1 [A41, 1-{7-[(R)-1-(9H-Purin-6-yl)pyrrolidin-2-yl-methoxy]benzofuran-2-yl}ethanone]
30 | 1 to 10 | c1cnc2c(OC[C@H]3CCCN3c3ncnc4[nH]cnc34)ccc(CN3CCCCC3)c2c1 [A42, 5-Piperidin-1-ylmethyl-8-[(R)-1-(9H-purin-6-yl)-pyrrolidin-2-ylmethoxy]quinoline formate]
31 | 1 to 10 | c1cnc2c(OC[C@H]3CCCN3c3ncnc4[nH]cnc34)cccc2c1 [A43, 8-[(R)-1-(9H-Purin-6-yl)pyrrolidin-2-yl-methoxy]quinoline]
32 | 1 to 10 | NCCOCCOCCNCc1ccc(OC[C@H]2CCCN2c2ncnc3[nH]cnc23)c2ccccc12 [A47, 2-{2-[2-({4-[(R)-1-(9H-Purin-6-yl)pyrrolidin-2-yl-methoxy]naphthalen-1-ylmethyl}-amino)ethoxy]ethoxy}ethylamine]
33 | 1 to 10 | Cc1ccc2cccc(OC[C@H]3CCCN3c3ncnc4[nH]cnc34)c2n1 [A49, 2-Methyl-8-[(R)-1-(9H-purin-6-yl)pyrrolidin-2-yl-methoxy]quinoline]
